Measured values from patent US20210300926A1, “NEW BETA-LACTAMASE INHIBITORS TARGETING GRAM NEGATIVE BACTERIA” (priority 2017, published 2021).
Like-named read-outs stand apart in the source and are kept apart here.

Tests used:
E. coli Top10 = assay: MIC determination by microdilution, E. coli Top10 without β-lactamase (None); format: cell-based
Excerpt: (§1) Plasmid and strain construction. For antibiotic susceptibility testing, the R-lactamase genes were cloned into the vector pTRC-99k, which is a derivative of pTRC99a (Pharmacia) obtained by replacing the β-lactamase resistance gene by a kanamycin resistance gene (Km, lacl, pTRC promoter, oriVcolEl; D. Mengin-Lecreulx, unpublished). Recombinant plasmids were introduced by electrotransformation into Escherichia coli Top10. For β-lactamase production, fragments of the β-lactamase genes encoding soluble enzymes, i.e. devoid of the signal peptides, were cloned into the vector pET-TEV generating translational fusions with a vector-encoded N-terminal 6×His Tag followed by a TEV cleavage site ([…]) (1).
(§2) MIC determination. MICs of β-lactams were determined by the microdilution method in MH broth according to Clinical and Laboratory Standards Institute (CLSI) recommendations (12). Diazabicyclooctane were used at a fixed concentration of 15 μM (4 μg/ml for avibactam). Clavulanate was tested at 4 μg/ml. IPTG (500 μM) was added to the microdilution plates to induce production of the -lactamase. The precultures were grown in BHI broth containing IPTG (500 μM) and kanamycin (50 μg/ml) for plasmid maintenance. Reported MICs are the medians from five biological repeats obtained in two independent experiments.

[1] = system: E. coli Top10 producing CTX-M15; assay: MIC determination by microdilution, E. coli Top10 producing CTX-M15; format: cell-based, Escherichia coli; details: for reduction in the MICs of β-lactams (in words): E. coli Top10 producing CTX-M-15, summary of Table 1
Excerpt: as §1, §2

CTX-M-15 = target: T1, CTX-M-15 (Escherichia coli, UniProt Q9EXV5); assay: Kinetic parameters of β-lactamase carbamoylation/de-carbamoylation (nitrocefin), CTX-M-15; format: biochemical; details: for Carbamoylation efficacy of β-lactamases by diazabicyclooctanes / De-carbamoylation rate constant k−2 for β-lactamase-diazabicyclooctane adducts: CTX-M-15, 20° C., nitrocefin 100 μM, MES pH 6.4; for activity against CTX-M-15 (in words): summary of Tables 1 and 2
T1 construct: fragments of the β-lactamase genes encoding soluble enzymes, i.e. devoid of the signal peptides; made in house; host or cells: E. coli BL21 (DE3)
T1 sequence (Q9EXV5 entry or part of it): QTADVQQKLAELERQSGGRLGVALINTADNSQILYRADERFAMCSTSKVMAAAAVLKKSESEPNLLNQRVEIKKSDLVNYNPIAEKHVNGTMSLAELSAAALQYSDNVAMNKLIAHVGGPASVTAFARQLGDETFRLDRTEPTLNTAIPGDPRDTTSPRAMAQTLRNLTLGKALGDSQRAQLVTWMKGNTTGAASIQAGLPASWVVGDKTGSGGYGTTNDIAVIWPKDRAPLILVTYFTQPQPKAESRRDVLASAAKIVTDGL
Excerpt: as §1
(§3) Production and purification of β-lactamases. E. coli BL21 (DE3) harboring recombinant plasmids were grown in brain heart infusion (BHI) broth supplemented with kanamycin (50 μg/ml) at 37° C. under vigorous shaking until the optical density at 600 nm (OD600) reached 0.8. Isopropyl β-D-1-thiogalactopyranoside IPTG (0.5 mM) was added and incubation was continued at 16° C. for 18 h. Bacteria were harvested by centrifugation, re-suspended in 25 mM Tris-HCl (pH 7.5) containing 300 mM NaCl (buffer A) and lysed by sonication. The enzymes were purified from clarified lysates by affinity chromatography (NiNTA agarose, Sigma-Aldrich) and size exclusion chromatography in buffer A (Superdex 200 HL26/60, Amersham Pharmacia Biotech). Protein concentration was determined by the Biorad protein assay using bovine serum albumin as a standard.
(§4) Determination of kinetic parameters. […] Briefly, the initial velocity (vi) was determined by spectrophotometry for various concentrations of β-lactams [S] and a fixed concentration of β-lactamase [E]. The values of vi were plotted as a function of [S]. The kinetic constants Km and kcat were determined by fitting the equation […] to the resulting curve. The molecular extinction coefficient was 14,600 M^−1 cm^−1 at 486 nm for nitrocefin. […] Kinetics constants were deduced from a minimum of 6 progress curves obtained in a minimum of two independent experiments.

AmpCEclo = target: T2, AmpCEclo (Enterobacter cloacae, UniProt P05364); format: biochemical; details: for Carbamoylation efficacy of β-lactamases by diazabicyclooctanes / De-carbamoylation rate constant k−2 for β-lactamase-diazabicyclooctane adducts: AmpCEclo, 20° C., nitrocefin 100 μM, MES pH 6.4
T2 construct: fragments of the β-lactamase genes encoding soluble enzymes, i.e. devoid of the signal peptides; 6xHis tag followed by TEV cleavage site ([…]) (N); made in house; host or cells: E. coli BL21 (DE3)
T2 sequence (P05364 21-381): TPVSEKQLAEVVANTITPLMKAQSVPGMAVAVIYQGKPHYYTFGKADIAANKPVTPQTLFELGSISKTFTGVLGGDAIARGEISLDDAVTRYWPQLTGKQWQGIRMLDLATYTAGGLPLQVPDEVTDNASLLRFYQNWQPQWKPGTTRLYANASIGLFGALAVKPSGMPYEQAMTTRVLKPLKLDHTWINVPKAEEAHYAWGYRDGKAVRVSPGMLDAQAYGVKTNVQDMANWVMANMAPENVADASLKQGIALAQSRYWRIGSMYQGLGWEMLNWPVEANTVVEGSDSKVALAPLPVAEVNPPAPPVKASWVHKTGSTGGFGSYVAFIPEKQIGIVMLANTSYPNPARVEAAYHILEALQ
Procedure: as §3, §4

KPC-2 = target: T3, KPC-2 (Klebsiella pneumoniae, UniProt Q9F663); assay: Kinetic parameters of β-lactamase carbamoylation/de-carbamoylation (nitrocefin), KPC-2; format: biochemical; details: for Carbamoylation efficacy of β-lactamases by diazabicyclooctanes / De-carbamoylation rate constant k−2 for β-lactamase-diazabicyclooctane adducts: KPC-2, 20° C., nitrocefin 100 μM, MES pH 6.4; for activity against KPC-2 (in words): summary of Tables 1 and 2
T3 construct: fragments of the β-lactamase genes encoding soluble enzymes, i.e. devoid of the signal peptides; 6xHis tag followed by TEV cleavage site ([…]) (N); made in house; host or cells: E. coli BL21 (DE3)
T3 sequence (Q9F663 25-293 limits assumed): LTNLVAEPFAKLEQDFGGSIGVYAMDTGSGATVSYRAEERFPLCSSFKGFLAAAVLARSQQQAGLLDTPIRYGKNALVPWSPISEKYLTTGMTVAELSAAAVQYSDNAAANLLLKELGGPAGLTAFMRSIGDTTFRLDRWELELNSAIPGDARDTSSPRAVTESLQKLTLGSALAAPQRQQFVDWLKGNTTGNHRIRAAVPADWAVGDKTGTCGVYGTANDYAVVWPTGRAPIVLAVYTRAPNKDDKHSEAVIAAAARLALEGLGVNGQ
Excerpt: as §1, §3, §4

TEM-1 = target: T4, TEM-1 (Escherichia coli, UniProt P62593); assay: Kinetic parameters of β-lactamase carbamoylation/de-carbamoylation (nitrocefin), TEM-1; format: biochemical; details: 20° C., nitrocefin 100 μM, MES pH 6.4
T4 construct: fragments of the β-lactamase genes encoding soluble enzymes, i.e. devoid of the signal peptides; made in house; host or cells: E. coli BL21 (DE3)
T4 sequence (P62593 24-286 limits assumed): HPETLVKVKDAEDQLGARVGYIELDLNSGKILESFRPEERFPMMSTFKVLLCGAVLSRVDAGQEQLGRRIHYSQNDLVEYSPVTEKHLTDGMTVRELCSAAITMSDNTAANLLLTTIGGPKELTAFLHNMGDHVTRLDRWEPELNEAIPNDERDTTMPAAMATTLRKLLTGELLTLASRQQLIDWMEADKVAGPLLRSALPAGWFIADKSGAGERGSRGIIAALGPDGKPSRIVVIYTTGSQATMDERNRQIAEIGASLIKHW
Excerpt: as §1, §3, §4

[2] = system: E. coli Top10 producing KPC-2; format: cell-based, Escherichia coli; details: summary of Table 1
OXA-48 = target: T5, OXA-48 (Klebsiella pneumoniae, UniProt Q6XEC0); assay: Kinetic parameters of β-lactamase carbamoylation/de-carbamoylation (nitrocefin), OXA-48; format: biochemical; details: for Carbamoylation efficacy of β-lactamases by diazabicyclooctanes / De-carbamoylation rate constant k−2 for β-lactamase-diazabicyclooctane adducts: OXA-48, 20° C., nitrocefin 100 μM, MES pH 6.4, NA = no inhibition at 100 μM
T5 construct: fragments of the β-lactamase genes encoding soluble enzymes, i.e. devoid of the signal peptides; 6xHis tag followed by TEV cleavage site ([…]) (N); made in house; host or cells: E. coli BL21 (DE3)
T5 sequence (Q6XEC0 23-265 limits assumed): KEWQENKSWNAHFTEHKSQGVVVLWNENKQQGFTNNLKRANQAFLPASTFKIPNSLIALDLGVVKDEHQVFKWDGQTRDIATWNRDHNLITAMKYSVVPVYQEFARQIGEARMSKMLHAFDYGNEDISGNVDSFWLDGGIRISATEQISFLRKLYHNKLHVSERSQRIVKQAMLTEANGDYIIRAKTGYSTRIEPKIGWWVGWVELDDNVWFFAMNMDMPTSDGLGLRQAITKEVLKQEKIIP
Excerpt: as §1, §3, §4

Row | SMILES | MIC (E. coli Top10; Escherichia coli, TOP10; read-out: MIC of β-lactam, inhibitor None) | MIC (E. coli Top10; Escherichia coli, TOP10, read-out: MIC of β-lactam, inhibitor None) | MIC ([1]; Escherichia coli, read-out: MIC of β-lactam, inhibitor None) | Carbamoylation efficacy of β-lactamases by diazabicyclooctanes (CTX-M-15) | De-carbamoylation rate constant k−2 for β-lactamase-diazabicyclooctane adducts (CTX-M-15) | Carbamoylation efficacy of β-lactamases by diazabicyclooctanes (AmpCEclo) | De-carbamoylation rate constant k−2 for β-lactamase-diazabicyclooctane adducts (AmpCEclo) | reduction in the MICs of β-lactams (in words) [1] | Carbamoylation efficacy of β-lactamases by diazabicyclooctanes (KPC-2) | De-carbamoylation rate constant k−2 for β-lactamase-diazabicyclooctane adducts (KPC-2) | Carbamoylation efficacy of β-lactamases by diazabicyclooctanes (TEM-1) | De-carbamoylation rate constant k−2 for β-lactamase-diazabicyclooctane adducts (TEM-1) | reduction in the MICs of β-lactams (in words) [2] | activity against CTX-M-15 (in words) (CTX-M-15) | activity against KPC-2 (in words) (KPC-2) | inhibition of β-lactamase AmpClo (in words) (AmpCEclo) | inhibition of β-lactamase OXA-48 (in words) (OXA-48) | Carbamoylation efficacy of β-lactamases by diazabicyclooctanes (OXA-48) | De-carbamoylation rate constant k−2 for β-lactamase-diazabicyclooctane adducts (OXA-48)
1 | C[C@H]1[C@H](NC(=O)/C(=N\OC(C)(C)C(=O)O)c2csc(N)n2)C(=O)N1S(=O)(=O)O [Aztreonam] | 0.5 µg/mL | – | – | – | – | – | – | – | – | – | – | – | – | – | – | – | – | – | –
2 | CC1(C)S[C@@H]2[C@H](NC(=O)[C@H](N)c3ccc(O)cc3)C(=O)N2[C@H]1C(=O)O [Amoxicillin, reference compound] | – | 4 µg/mL | 2050 µg/mL | – | – | – | – | – | – | – | – | – | – | – | – | – | – | – | –
3 | O=C(O)CCc1cn(C[C@@H]2CC[C@@H]3CN2C(=O)N3OS(=O)(=O)[O-])nn1.[Na+] [Compound 1a.i14] | – | – | – | (1.1 ± 0.1) × 10^2 M^−1 s^−1 | (3.9 ± 0.8) × 10^−4 s−1 | (9.9 ± 0.9) × 10^1 M^−1 s^−1 | (1.6 ± 0.2) × 10^−3 s−1 | Minor reduction | (7.0 ± 0.8) × 10^1 M^−1 s^−1 | (7.9 ± 1.7) × 10^−4 s−1 | (7.2 ± 0.6) × 10^2 M^−1 s^−1 | (8.2 ± 8.9) × 10^−4 s−1 | Minor reduction | – | – | – | – | – | –
4 | C[Si](C)(C)c1cn(C[C@@H]2CC[C@@H]3CN2C(=O)N3OS(=O)(=O)O)nn1 [Compound 2a.i] | – | – | – | (4.0 ± 0.1) × 10^2 M^−1 s^−1 | (3.9 ± 0.9) × 10^−4 s−1 | (2.4 ± 0.1) × 10^1 M^−1 s^−1 | (1.3 ± 0.9) × 10^−3 s−1 | Minor reduction | (9.7 ± 0.8) × 10^1 M^−1 s^−1 | (2.9 ± 0.2) × 10^−3 s−1 | (3.7 ± 0.5) × 10^2 M^−1 s^−1 | (2.9 ± 0.9) × 10^−3 s−1 | Minor reduction | – | – | – | – | – | –
5 | O=C1N2C[C@@H](CC[C@H]2Cn2cc(CN3CCOCC3)nn2)N1OS(=O)(=O)[O-].[Na+] [Compound 1a.i11] | – | – | – | (1.0 ± 0.0) × 10^2 M^−1 s^−1 | (4.6 ± 1.1) × 10^−4 s−1 | (3.1 ± 0.3) × 10^1 M^−1 s^−1 | (8.9 ± 2.1) × 10^−4 s−1 | – | (1.9 ± 0.2) × 10^2 M^−1 s^−1 | (3.0 ± 0.4) × 10^−3 s−1 | (1.2 ± 0.0) × 10^3 M^−1 s^−1 | (2.9 ± 0.3) × 10^−3 s−1 | – | displayed activity | displayed activity | – | – | – | –
6 | NC(=O)[C@@H]1CC[C@@H]2CN1C(=O)N2OS(=O)(=O)O [Avibactam, reference compound] | – | – | – | (1.3 ± 0.1) × 10^5 M^−1 s^−1 | (1.1 ± 0.3) × 10^−3 s−1 | (1.8 ± 0.1) × 10^4 M^−1 s^−1 | (1.8 ± 0.2) × 10^−3 s−1 | – | (2.6 ± 0.1) × 10^4 M^−1 s^−1 | (4.0 ± 0.3) × 10^−3 s−1 | (8.8 ± 0.2) × 10^4 M^−1 s^−1 | (1.3 ± 0.1) × 10^−3 s−1 | – | – | – | poorly inhibited | poorly inhibited | (9.8 ± 0.6) × 10^2 M^−1 s^−1 | (2.7 ± 0.1 ) × 10^−3 s−1
7 | O=C1N2C[C@@H](CC[C@H]2Cn2cc(-c3ccccc3)nn2)N1OS(=O)(=O)[O-].[Na+] [Compound 1a.i16] | – | – | – | (6.9 ± 0.2) × 10^3 M^−1 s^−1 | (3.3 ± 0.5) × 10^−4 s−1 | (2.0 ± 0.0) × 10^2 M^−1 s^−1 | (2.3 ± 0.1) × 10^−3 s−1 | – | (9.3 ± 0.4) × 10^2 M^−1 s^−1 | (8.8 ± 1.2) × 10^−4 s−1 | (4.7 ± 0.1) × 10^3 M^−1 s^−1 | (4.2 ± 0.6) × 10^−4 s−1 | – | displayed activity | displayed activity | – | – | (1.1 ± 0.3) × 10^2 M^−1 s^−1 | (1.7 ± 0.1) × 10^−3 s−1
8 | O=C1N2C[C@@H](CC[C@H]2Cn2cc(-c3cccnc3)nn2)N1OS(=O)(=O)O [Compound 1a.i] | – | – | – | (1.7 ± 0.4) × 10^3 M^−1 s^−1 | (6.4 ± 0.8) × 10^−4 s−1 | (8.5 ± 0.7) × 10^1 M^−1 s^−1 | (2.1 ± 0.5) × 10^−3 s−1 | – | (5.5 ± 0.1) × 10^2 M^−1 s^−1 | (3.0 ± 0.1) × 10^−3 s−1 | (1.4 ± 0.1) × 10^3 M^−1 s^−1 | (2.1 ± 0.2) × 10^−3 s−1 | – | displayed activity | displayed activity | – | – | – | –
